Source: paper PMC2697668 (Organic letters, 2009)

Target: recombinant yeast Hsp90
Assay: ATPase inhibition assay
Format: biochemical, Saccharomyces cerevisiae
Details: read-out: ATPase; incubated with ATP

IC50: 400 nM
SMILES: C[C@@H]1C[C@H]2O[C@@H]2/C=C\C=C\C(=O)Cc2c(Cl)c(O)cc(O)c2C(=O)O1 [RDC]
